Laboratory results from ChEMBL document CHEMBL4184159, “Delphinidin inhibits BDNF-induced migration and invasion in SKOV3 ovarian cancer cells” (2017).
Values belong to the compound of their own block, whether it stands above or below them. Activity calls are given as the source filed them. No cut-off for these calls is given here.

Legend:
[1] = target: RAC-alpha serine/threonine-protein kinase (Homo sapiens) (UniProt P31749); assay: Inhibition of BDNF-induced AKT phosphorylation in human SKOV3 cells after 24 hrs by Western blot analysis; assay type: cell-based
[2] = test system: SK-OV-3; assay: Inhibition of BDNF-induced invasion in human SKOV3 cells at 20 uM after 24 hrs in by matrigel invasion assay; assay type: functional, cell-based
[3] = test system: SK-OV-3; assay: Antimigratory activity against human SKOV3 cells assessed as inhibition of BDNF-induced cell migration at 20 uM after 24 hrs by scratch wound healing assay; assay type: functional, cell-based
[4] = species on record: Homo sapiens; assay: Inhibition of BDNF-induced NFkappaB nuclear translocation in human SKOV3 cells at 50 to 75 uM after 24 hrs by Western blot analysis; assay type: cell-based
[5] = test system: SK-OV-3; assay: Antiproliferative activity against human SKOV3 cells at 200 uM after 24 hrs by CCK-8 assay; assay type: functional, cell-based
[6] = test system: SK-OV-3; assay: Antiproliferative activity against human SKOV3 cells at 10 uM after 24 hrs by CCK-8 assay; assay type: functional
[7] = test system: SK-OV-3; assay: Antiproliferative activity against human SKOV3 cells at 75 uM after 24 hrs by CCK-8 assay; assay type: functional
[8] = test system: SK-OV-3; assay: Antimigratory activity against human SKOV3 cells assessed as inhibition of BDNF-induced cell migration after 24 hrs by scratch wound healing assay; assay type: functional, cell-based
[9] = test system: SK-OV-3; assay: Antiproliferative activity against human SKOV3 cells at 5 uM after 24 hrs by CCK-8 assay; assay type: functional
[10] = test system: SK-OV-3; assay: Downregulation of BDNF-induced MMP2 mRNA expression in human SKOV3 cells after 24 hrs by qRT-PCR analysis; assay type: functional, cell-based
[11] = test system: SK-OV-3; assay: Antiproliferative activity against human SKOV3 cells at 100 uM after 24 hrs by CCK-8 assay; assay type: functional, cell-based
[12] = test system: SK-OV-3; assay: Antiproliferative activity against human SKOV3 cells at 50 uM after 24 hrs by CCK-8 assay; assay type: functional
[13] = test system: SK-OV-3; assay: Inhibition of BDNF-induced invasion in human SKOV3 cells after 24 hrs in by matrigel invasion assay; assay type: functional, cell-based
[14] = test system: SK-OV-3; assay: Downregulation of BDNF-induced MMP9 mRNA expression in human SKOV3 cells after 24 hrs by qRT-PCR analysis; assay type: functional, cell-based

Chain of RAC-alpha serine/threonine-protein kinase (Homo sapiens) (P31749 whole entry): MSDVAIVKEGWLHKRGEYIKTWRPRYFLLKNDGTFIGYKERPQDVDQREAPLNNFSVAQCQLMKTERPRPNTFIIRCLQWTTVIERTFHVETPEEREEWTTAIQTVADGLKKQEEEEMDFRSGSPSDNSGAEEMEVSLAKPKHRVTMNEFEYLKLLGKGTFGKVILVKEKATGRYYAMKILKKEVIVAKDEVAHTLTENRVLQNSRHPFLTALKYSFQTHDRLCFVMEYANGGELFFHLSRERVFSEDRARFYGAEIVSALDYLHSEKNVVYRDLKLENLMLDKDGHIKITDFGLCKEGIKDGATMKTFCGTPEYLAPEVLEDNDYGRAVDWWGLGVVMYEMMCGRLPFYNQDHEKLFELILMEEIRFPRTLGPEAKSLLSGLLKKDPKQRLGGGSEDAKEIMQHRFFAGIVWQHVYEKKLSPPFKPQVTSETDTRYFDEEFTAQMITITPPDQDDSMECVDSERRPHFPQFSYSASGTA

inhibition [1]: Dose-dependent effect
Structure (SMILES): O=c1cc(N2CCOCC2)oc2c(-c3ccccc3)cccc12
inhibition [2]: Active
inhibition [3]: Active

inhibition [1]: Dose-dependent effect
Structure (SMILES): Oc1cc(O)c2cc(O)c(-c3cc(O)c(O)c(O)c3)[o+]c2c1.[Cl-] [DELPHINIDIN CHLORIDE]
inhibition [4]: Active
Activity [5]: Active
Activity [6]: >98%
Activity [7]: >98%
Activity [8]: Dose-dependent effect
Activity [9]: >98%
Activity [10]: Dose-dependent effect
Activity [11]: Active
Activity [12]: >98%
inhibition [13]: Dose-dependent effect
Activity [14]: Dose-dependent effect
